Results published in ChEMBL document CHEMBL1153189, “The comparative antimalarial properties of weak base and neutral synthetic ozonides” (Bioorg Med Chem Lett, 2010).
pIC50: −log10 of the molar value. In brackets after ≈: the same amount, converted by molar mass.

Experiments:
[1] = test system: Plasmodium falciparum; assay: Antimalarial activity against chloroquine-sensitive Plasmodium falciparum NF54; format: functional, organism-based
[2] = test system: Plasmodium berghei; assay: Antimalarial activity against Plasmodium berghei infected in NMRI mice (Mus musculus) assessed as reduction in parasitaemia at 10 mg/kg, perorally administered 1 day post infection; format: functional; design: scale not given: the % may be the effect or the level left; settings: route oral
[3] = test system: Plasmodium berghei; assay: Antimalarial activity against Plasmodium berghei infected in NMRI mice (Mus musculus) assessed as reduction in parasitaemia at 3 mg/kg, perorally administered for 3 days post infection; format: functional; design: scale not given: the % may be the effect or the level left; settings: route oral
[4] = test system: Plasmodium berghei; assay: Antimalarial activity against Plasmodium berghei infected in NMRI mice (Mus musculus) assessed as survival time at 3 mg/kg, perorally administered for 3 days post infection; format: functional; settings: route oral
[5] = test system: Plasmodium berghei; assay: Antimalarial activity against Plasmodium berghei infected in NMRI mice (Mus musculus) assessed as cure rat at 3 mg/kg, perorally administered for 3 days post infection measured after 30 days; format: functional; settings: route oral
[6] = test system: Rattus norvegicus; assay: Half life in Sprague-Dawley rat at 10 mg/kg, iv; format: ADME, organism-based; design: dose 10 mg/kg, route intravenous; settings: in vivo
[7] = test system: Rattus norvegicus; assay: Volume of distribution in Sprague-Dawley rat at 10 mg/kg, iv; format: ADME, organism-based; design: dose 10 mg/kg, route intravenous; settings: in vivo
[8] = Oral bioavailability in Sprague-Dawley rat at 10 mg/kg; format: ADME, organism-based; settings: in vivo
[9] = target: Cytochrome P450 2D6 (Homo sapiens, UniProt P10635); assay: Inhibition of CYP2D6; format: ADME
Chain of Cytochrome P450 2D6 (P10635 whole entry): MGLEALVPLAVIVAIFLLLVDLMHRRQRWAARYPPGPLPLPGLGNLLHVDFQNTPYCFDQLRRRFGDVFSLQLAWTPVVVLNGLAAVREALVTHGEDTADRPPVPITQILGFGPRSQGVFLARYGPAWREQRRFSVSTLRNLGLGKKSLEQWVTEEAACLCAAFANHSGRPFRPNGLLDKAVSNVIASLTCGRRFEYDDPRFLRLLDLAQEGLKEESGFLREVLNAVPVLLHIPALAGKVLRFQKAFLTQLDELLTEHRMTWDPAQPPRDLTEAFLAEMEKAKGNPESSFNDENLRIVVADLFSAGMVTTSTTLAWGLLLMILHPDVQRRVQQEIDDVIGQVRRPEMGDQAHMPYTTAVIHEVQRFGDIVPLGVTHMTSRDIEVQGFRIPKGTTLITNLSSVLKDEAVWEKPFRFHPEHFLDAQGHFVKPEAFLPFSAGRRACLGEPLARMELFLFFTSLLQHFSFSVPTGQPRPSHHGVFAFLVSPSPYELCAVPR

[10] = target: Cytochrome P450 3A4 (Homo sapiens, UniProt P08684); assay: Inhibition of CYP3A4; format: ADME
Chain of Cytochrome P450 3A4 (P08684 whole entry): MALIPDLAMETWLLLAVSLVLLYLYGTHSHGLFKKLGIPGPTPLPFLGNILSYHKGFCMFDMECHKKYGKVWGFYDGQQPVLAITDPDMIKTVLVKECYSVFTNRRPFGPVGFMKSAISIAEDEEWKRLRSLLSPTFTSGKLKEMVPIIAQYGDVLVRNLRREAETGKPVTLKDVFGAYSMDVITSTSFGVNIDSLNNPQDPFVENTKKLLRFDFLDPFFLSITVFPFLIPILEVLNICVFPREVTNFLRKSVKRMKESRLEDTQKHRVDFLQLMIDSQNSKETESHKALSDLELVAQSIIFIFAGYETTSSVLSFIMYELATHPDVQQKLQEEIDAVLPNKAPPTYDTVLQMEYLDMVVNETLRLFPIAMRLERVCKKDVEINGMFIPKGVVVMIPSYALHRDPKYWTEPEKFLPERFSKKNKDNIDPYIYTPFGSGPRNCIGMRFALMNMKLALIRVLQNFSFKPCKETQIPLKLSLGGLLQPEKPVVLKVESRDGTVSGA

[11] = target: Cytochrome P450 2C9 (Homo sapiens, UniProt P11712); assay: Inhibition of CYP2C9; format: ADME
Chain of Cytochrome P450 2C9 (P11712 whole entry): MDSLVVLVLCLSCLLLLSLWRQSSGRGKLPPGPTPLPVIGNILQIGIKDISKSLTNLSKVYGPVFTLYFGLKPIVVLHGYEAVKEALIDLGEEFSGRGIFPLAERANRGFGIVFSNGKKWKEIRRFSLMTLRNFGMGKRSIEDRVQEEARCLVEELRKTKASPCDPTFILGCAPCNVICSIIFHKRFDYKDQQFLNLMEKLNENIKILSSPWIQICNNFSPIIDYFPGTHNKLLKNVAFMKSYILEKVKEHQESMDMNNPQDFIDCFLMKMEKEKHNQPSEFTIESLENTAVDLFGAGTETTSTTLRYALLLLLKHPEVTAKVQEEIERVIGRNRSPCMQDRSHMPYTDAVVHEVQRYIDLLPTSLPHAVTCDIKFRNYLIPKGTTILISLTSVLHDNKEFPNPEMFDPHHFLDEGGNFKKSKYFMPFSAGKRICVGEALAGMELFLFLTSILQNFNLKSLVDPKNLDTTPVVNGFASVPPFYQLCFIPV

[12] = target: Cytochrome P450 2C19 (Homo sapiens, UniProt P33261); assay: Inhibition of CYP2C19; format: ADME
Chain of Cytochrome P450 2C19 (P33261 whole entry): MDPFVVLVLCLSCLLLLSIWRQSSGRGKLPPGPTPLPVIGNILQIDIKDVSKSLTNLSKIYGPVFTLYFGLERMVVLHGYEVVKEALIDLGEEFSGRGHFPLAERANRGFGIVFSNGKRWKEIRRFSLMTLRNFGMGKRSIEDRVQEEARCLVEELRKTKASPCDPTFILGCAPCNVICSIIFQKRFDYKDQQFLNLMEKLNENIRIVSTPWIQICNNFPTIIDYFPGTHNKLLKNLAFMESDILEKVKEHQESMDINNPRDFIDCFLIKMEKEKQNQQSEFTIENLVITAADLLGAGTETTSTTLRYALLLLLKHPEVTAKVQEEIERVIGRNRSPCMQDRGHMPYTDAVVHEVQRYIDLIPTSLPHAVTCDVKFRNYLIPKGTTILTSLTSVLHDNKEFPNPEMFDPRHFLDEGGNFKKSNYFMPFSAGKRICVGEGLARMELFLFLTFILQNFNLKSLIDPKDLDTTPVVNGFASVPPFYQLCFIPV

[13] = Lipophilicity, log D at pH 7.4; format: physicochemical; settings: buffer
[14] = in vitro; settings: human, liver microsomes
Description: Metabolic stability in human liver microsomes assessed as hepatic extraction ratio

[15] = test system: Plasmodium falciparum; assay: Antimalarial activity against chloroquine-resistant Plasmodium falciparum K1; format: functional, organism-based

Row | Structure (SMILES) | IC50 [1] | Activity [2] | IC50 [15] | further results
1 | O=C(NCC1CCC2(CC1)OOC1(O2)C2CC3CC(C2)CC1C3)c1ccccn1 (stereo not drawn) | 1.1 ng/mL (≈ 2.76 nM) | 99.6% |  | 
2 | NC[C@H]1CC[C@]2(CC1)OOC1(O2)C2CC3CC(C2)CC1C3 (stereo partly drawn) |  | >99.9% |  | Activity [3]: >99.9%; Survival [4]: 12.8 days; Activity [5]: 0%; t1/2 [6]: 1.5 h; Vd [7]: 46 L/kg; bioavailability [8]: 31%; Activity [9]: Not Active; pIC50 [10]: 5.01; pIC50 [11]: 4.77; pIC50 [12]: 6.96; logD [13]: 2.6; hepatic extraction ratio [14]: 0.24
3 | Cc1ccc(S(=O)(=O)O)cc1.Cc1ccc(S(=O)(=O)O)cc1.O=C(CN1CCNCC1)NC[C@H]1CC[C@]2(CC1)OO[C@]1(O2)C2CC3CC(C2)CC1C3 | 1.4 ng/mL | 99.7% | 0.59 ng/mL | 
4 | O=CNCC(=O)NC[C@H]1CC[C@]2(CC1)OO[C@]1(O2)C2CC3CC(C2)CC1C3 |  | 98% | 0.9 ng/mL (≈ 2.38 nM) | 
5 | O=C(O)CCC(=O)NC[C@H]1CC[C@]2(CC1)OO[C@]1(O2)C2CC3CC(C2)CC1C3 | 97 ng/mL (≈ 247 nM) | <40% | 71 ng/mL (≈ 180 nM) | 
6 | O=C1CNC(=O)N1C[C@H]1CC[C@]2(CC1)OO[C@]1(O2)C2CC3CC(C2)CC1C3 | 2.7 ng/mL (≈ 7.17 nM) | 92% | 1 ng/mL (≈ 2.66 nM) | 
7 | CS(=O)(=O)O.NCC(=O)NC[C@H]1CC[C@]2(CC1)OO[C@]1(O2)C2CC3CC(C2)CC1C3 | 0.29 ng/mL | 99.9% | 0.36 ng/mL | Activity [3]: >99.9%; Activity [5]: 0%
8 | NC1(C(=O)NC[C@H]2CC[C@]3(CC2)OO[C@]2(O3)C3CC4CC(C3)CC2C4)CCCCC1 | 0.44 ng/mL (≈ 1.05 nM) | 99.9% | 0.24 ng/mL (≈ 0.573 nM) | 
9 | Cc1ccc(S(=O)(=O)O)cc1.NCCC(=O)NC[C@H]1CC[C@]2(CC1)OO[C@]1(O2)C2CC3CC(C2)CC1C3 |  | 99.9% |  | Activity [3]: >99.9%; Survival [4]: 20.8 days; Activity [5]: 0%
10 | O=C(CN1CCOCC1)NC[C@H]1CC[C@]2(CC1)OO[C@]1(O2)C2CC3CC(C2)CC1C3.O=C(O)/C=C\C(=O)O | 1.8 ng/mL | 99% | 0.88 ng/mL | logD [13]: 5
11 | CS(=O)(=O)O.O=C(NC[C@H]1CC[C@]2(CC1)OO[C@]1(O2)C2CC3CC(C2)CC1C3)C(=O)N1CCNCC1 | 0.54 ng/mL | 99.9% | 0.69 ng/mL | 
12 | NC(=O)NC[C@H]1CC[C@]2(CC1)OO[C@]1(O2)C2CC3CC(C2)CC1C3 | 1.6 ng/mL (≈ 4.76 nM) | 98% | 0.56 ng/mL (≈ 1.66 nM) | 
13 | O=C(NC[C@H]1CC[C@]2(CC1)OO[C@]1(O2)C2CC3CC(C2)CC1C3)c1ccncc1 | 1.1 ng/mL (≈ 2.76 nM) | 99.5% | 2.2 ng/mL (≈ 5.52 nM) | 
14 | CS(=O)(=O)O.O=C(NC[C@H]1CC[C@]2(CC1)OO[C@]1(O2)C2CC3CC(C2)CC1C3)c1c[nH]cn1 | 1.1 ng/mL | 99.5% | 0.84 ng/mL | 
15 | CCNC(=O)NC[C@H]1CC[C@]2(CC1)OO[C@]1(O2)C2CC3CC(C2)CC1C3 |  | 98% |  | 
16 | O=C(NC[C@H]1CC[C@]2(CC1)OO[C@]1(O2)C2CC3CC(C2)CC1C3)N1CCOCC1 |  | 98% |  | 
17 | Cc1ccc(S(=O)(=O)O)cc1.O=C(NC[C@H]1CC[C@]2(CC1)OO[C@]1(O2)C2CC3CC(C2)CC1C3)N1CCNCC1 | 0.68 ng/mL | >99.9% | 0.43 ng/mL | Activity [3]: >99.9%; Survival [4]: 27 days; Activity [5]: 40%
18 | NC1(C(=O)NC[C@H]2CC[C@]3(CC2)OO[C@]2(O3)C3CC4CC(C3)CC2C4)CCCC1 | 0.36 ng/mL (≈ 0.89 nM) | 99.9% | 0.33 ng/mL (≈ 0.816 nM) | 
19 | Cc1ccc(S(=O)(=O)O)cc1.O=C(CNC1CC1)NC[C@H]1CC[C@]2(CC1)OO[C@]1(O2)C2CC3CC(C2)CC1C3 | 1.2 ng/mL | 99.6% | 0.39 ng/mL | 
